Reference: the SangsterLogP compilation

Assay: method code SF-AS, from DOI: 10.1080/09553007914550151, PMID: 312783
Details: pH 7.4

Compound | logD
COC(=O)c1cnc([N+](=O)[O-])n1C | 0.51
C=Cc1cnc([N+](=O)[O-])n1C | 0.64
Cn1c(C(C)(C)O)cnc1[N+](=O)[O-] | 0.43
Cn1c(CO)cnc1[N+](=O)[O-] | -0.35
COCC(O)Cn1cc([N+](=O)[O-])nc1C (configuration not stated) | -0.36
COCc1ccc([N+](=O)[O-])o1 | 0.89
O=[N+]([O-])c1nccn1CCS(=O)(=O)c1ccccc1 | 0.52

Second part, the molecule after the results:

logD | Compound
1.89 | O=[N+]([O-])c1nccn1CCOc1ccccc1
-0.34 | CC(=O)Cn1ccnc1[N+](=O)[O-]
2.38 | O=[N+]([O-])c1nccn1CCCOc1ccccc1
-1.3 | CS(=O)(=O)CCn1ccnc1[N+](=O)[O-]
0.53 | CCOCCn1ccnc1[N+](=O)[O-]
-0.1 | O=[N+]([O-])c1nccn1CCN1CCOCC1
0.51 | CC(C)OCC(O)Cn1ccnc1[N+](=O)[O-] (configuration not stated)
0.12 | COCCn1ccnc1[N+](=O)[O-]
-0.38 | O=[N+]([O-])c1cn(CCN2CCOCC2)cn1
-0.09 | COC(=O)Cn1ccnc1[N+](=O)[O-]
